In PMC12748989 (Nature Communications, 2025):

Assays:
[1] = system: MDA-MB-231 cells
[2] = system: PBMC; conditions: 12.5 µM

Structure (SMILES)	Average (percentage cell inhibition), Dmastoparan MDA-MB231 12.5uM [1] [%]	Average (percentage cell inhibition), Mastoparan PBMC [2] [%]
CC[C@H](C)[C@H](N)C(=O)N[C@@H](CC(N)=O)C(=O)N[C@@H](CC(C)C)C(=O)N[C@@H](CCCCN)C(=O)N[C@@H](C)C(=O)N[C@@H](CC(C)C)C(=O)N[C@@H](C)C(=O)N[C@@H](C)C(=O)N[C@H](C(=O)N[C@@H](C)C(=O)N[C@@H](CCCCN)C(=O)N[C@@H](CCCCN)C(=O)N[C@H](C(=O)N[C@@H](CC(C)C)C(N)=O)[C@@H](C)CC)C(C)C [V9]	43.1794	10.0305
CC[C@H](C)[C@H](N)C(=O)N[C@@H](CC(N)=O)C(=O)N[C@@H](CO)C(=O)N[C@@H](CCCCN)C(=O)N[C@@H](C)C(=O)N[C@@H](CC(C)C)C(=O)N[C@@H](C)C(=O)N[C@@H](C)C(=O)N[C@@H](CC(C)C)C(=O)N[C@@H](C)C(=O)N[C@@H](CCCCN)C(=O)N[C@@H](CCCCN)C(=O)N[C@H](C(=O)N[C@@H](CC(C)C)C(N)=O)[C@@H](C)CC [S3]	12.1099	5.178
CC[C@H](C)[C@H](N)C(=O)N[C@@H](CC(N)=O)C(=O)N[C@@H](Cc1c[nH]cn1)C(=O)N[C@@H](CCCCN)C(=O)N[C@@H](C)C(=O)N[C@@H](CC(C)C)C(=O)N[C@@H](C)C(=O)N[C@@H](C)C(=O)N[C@@H](CC(C)C)C(=O)N[C@@H](C)C(=O)N[C@@H](CCCCN)C(=O)N[C@@H](CCCCN)C(=O)N[C@H](C(=O)N[C@@H](CC(C)C)C(N)=O)[C@@H](C)CC [H3]	10.8919	-4.438
CC[C@H](C)[C@H](NC(=O)[C@H](CCCCN)NC(=O)[C@H](CCCCN)NC(=O)[C@H](C)NC(=O)[C@H](CC(C)C)NC(=O)[C@H](C)NC(=O)[C@H](C)NC(=O)[C@H](CC(C)C)NC(=O)[C@H](C)NC(=O)[C@H](CCCCN)NC(=O)[C@H](CC(C)C)NC(=O)[C@H](CC(N)=O)NC(=O)[C@@H]1CCCN1)C(=O)N[C@@H](CC(C)C)C(N)=O [P1]	43.0723	-0.6303
CC[C@H](C)[C@H](N)C(=O)N[C@@H](CC(N)=O)C(=O)N[C@@H](CC(C)C)C(=O)N[C@@H](CCCCN)C(=O)N[C@@H](C)C(=O)N[C@@H](CC(C)C)C(=O)N[C@@H](C)C(=O)N[C@@H](C)C(=O)N[C@@H](CC(C)C)C(=O)N[C@@H](CC(C)C)C(=O)N[C@@H](CCCCN)C(=O)N[C@@H](CCCCN)C(=O)N[C@H](C(=O)N[C@@H](CC(C)C)C(N)=O)[C@@H](C)CC [L10]	86.3514	52.7294
CC[C@H](C)[C@H](NC(=O)[C@H](CCCCN)NC(=O)[C@H](CCCCN)NC(=O)[C@H](C)NC(=O)[C@H](CC(C)C)NC(=O)[C@H](C)NC(=O)[C@H](C)NC(=O)[C@H](CC(C)C)NC(=O)[C@H](C)NC(=O)[C@H](CCCCN)NC(=O)[C@H](CC(C)C)NC(=O)[C@H](CC(N)=O)NC(=O)[C@@H](N)CC(N)=O)C(=O)N[C@@H](CC(C)C)C(N)=O [N1]	25.1532	8.003
CC[C@H](C)[C@H](N)C(=O)N[C@@H](CC(N)=O)C(=O)N[C@@H](CC(C)C)C(=O)N[C@@H](CCCCN)C(=O)N[C@@H](C)C(=O)N[C@@H](CC(C)C)C(=O)N[C@@H](C)C(=O)N[C@@H](CC(N)=O)C(=O)N[C@@H](CC(C)C)C(=O)N[C@@H](C)C(=O)N[C@@H](CCCCN)C(=O)N[C@@H](CCCCN)C(=O)N[C@H](C(=O)N[C@@H](CC(C)C)C(N)=O)[C@@H](C)CC [N8]	46.3177	16.8851
CC[C@H](C)[C@H](N)C(=O)N[C@@H](CC(N)=O)C(=O)N[C@@H](CC(C)C)C(=O)N[C@@H](CCCCN)C(=O)N[C@@H](C)C(=O)NCC(=O)N[C@@H](C)C(=O)N[C@@H](C)C(=O)N[C@@H](CC(C)C)C(=O)N[C@@H](C)C(=O)N[C@@H](CCCCN)C(=O)N[C@@H](CCCCN)C(=O)N[C@H](C(=O)N[C@@H](CC(C)C)C(N)=O)[C@@H](C)CC [G6]	27.1038	3.256
CC[C@H](C)[C@H](N)C(=O)N[C@@H](CC(N)=O)C(=O)N[C@@H](CC(C)C)C(=O)N[C@@H](CO)C(=O)N[C@@H](C)C(=O)N[C@@H](CC(C)C)C(=O)N[C@@H](C)C(=O)N[C@@H](C)C(=O)N[C@@H](CC(C)C)C(=O)N[C@@H](C)C(=O)N[C@@H](CCCCN)C(=O)N[C@@H](CCCCN)C(=O)N[C@H](C(=O)N[C@@H](CC(C)C)C(N)=O)[C@@H](C)CC [S4]	28.0357	7.7
CC[C@H](C)[C@H](N)C(=O)N[C@@H](CC(N)=O)C(=O)N[C@@H](CC(C)C)C(=O)N[C@H](C(=O)N[C@@H](C)C(=O)N[C@@H](CC(C)C)C(=O)N[C@@H](C)C(=O)N[C@@H](C)C(=O)N[C@@H](CC(C)C)C(=O)N[C@@H](C)C(=O)N[C@@H](CCCCN)C(=O)N[C@@H](CCCCN)C(=O)N[C@H](C(=O)N[C@@H](CC(C)C)C(N)=O)[C@@H](C)CC)[C@@H](C)O [T4]	29.8701	12.9948
CC[C@H](C)[C@H](N)C(=O)N[C@@H](CC(N)=O)C(=O)N[C@@H](CC(C)C)C(=O)N[C@@H](CCCCN)C(=O)N[C@@H](C)C(=O)N[C@@H](CC(C)C)C(=O)N[C@@H](C)C(=O)N[C@@H](C)C(=O)N[C@@H](CC(C)C)C(=O)N[C@@H](C)C(=O)N[C@@H](CCCCN)C(=O)N[C@@H](CCCCN)C(=O)N[C@@H](CCC(=O)O)C(=O)N[C@@H](CC(C)C)C(N)=O [E13]	42.4043	-2.907
CC[C@H](C)[C@H](N)C(=O)N[C@@H](CC(N)=O)C(=O)N[C@@H](CC(C)C)C(=O)N[C@@H](CCCCN)C(=O)N[C@@H](C)C(=O)N[C@@H](CC(C)C)C(=O)N[C@@H](C)C(=O)N[C@@H](C)C(=O)N[C@@H](CC(C)C)C(=O)N[C@@H](C)C(=O)N[C@@H](CCCCN)C(=O)N1CCC[C@H]1C(=O)N[C@H](C(=O)N[C@@H](CC(C)C)C(N)=O)[C@@H](C)CC [P12]	-19.0406	-2.814
CC[C@H](C)[C@H](N)C(=O)N[C@@H](CC(N)=O)C(=O)N[C@@H](CC(C)C)C(=O)N[C@@H](CCCCN)C(=O)N[C@@H](C)C(=O)N[C@@H](CC(C)C)C(=O)N[C@@H](C)C(=O)N[C@@H](C)C(=O)N[C@@H](CC(C)C)C(=O)N[C@@H](C)C(=O)N[C@@H](CCCCN)C(=O)N[C@@H](CCC(N)=O)C(=O)N[C@H](C(=O)N[C@@H](CC(C)C)C(N)=O)[C@@H](C)CC [Q12]	35.4495	-3.934
CC[C@H](C)[C@H](N)C(=O)N[C@@H](CC(N)=O)C(=O)N[C@@H](CC(C)C)C(=O)N[C@@H](CCCCN)C(=O)N[C@@H](C)C(=O)N[C@@H](CC(C)C)C(=O)N[C@@H](C)C(=O)N[C@@H](C)C(=O)N[C@@H](CC(C)C)C(=O)N[C@@H](CCC(N)=O)C(=O)N[C@@H](CCCCN)C(=O)N[C@@H](CCCCN)C(=O)N[C@H](C(=O)N[C@@H](CC(C)C)C(N)=O)[C@@H](C)CC [Q10]	6.186	12.3938
